The results in this text go back to patent publication US7265126B2, “Diaza-spiropiperidine derivatives” (Hoffmann-La Roche Inc., priority 2004, dated 2007).

The target in one test is T1, mGlyT-1b (Mus musculus, UniProt P28571).
T1 construct: host or cells: Flp-in-CHO
T1 sequence (P28571 1-651 isoform P28571-2): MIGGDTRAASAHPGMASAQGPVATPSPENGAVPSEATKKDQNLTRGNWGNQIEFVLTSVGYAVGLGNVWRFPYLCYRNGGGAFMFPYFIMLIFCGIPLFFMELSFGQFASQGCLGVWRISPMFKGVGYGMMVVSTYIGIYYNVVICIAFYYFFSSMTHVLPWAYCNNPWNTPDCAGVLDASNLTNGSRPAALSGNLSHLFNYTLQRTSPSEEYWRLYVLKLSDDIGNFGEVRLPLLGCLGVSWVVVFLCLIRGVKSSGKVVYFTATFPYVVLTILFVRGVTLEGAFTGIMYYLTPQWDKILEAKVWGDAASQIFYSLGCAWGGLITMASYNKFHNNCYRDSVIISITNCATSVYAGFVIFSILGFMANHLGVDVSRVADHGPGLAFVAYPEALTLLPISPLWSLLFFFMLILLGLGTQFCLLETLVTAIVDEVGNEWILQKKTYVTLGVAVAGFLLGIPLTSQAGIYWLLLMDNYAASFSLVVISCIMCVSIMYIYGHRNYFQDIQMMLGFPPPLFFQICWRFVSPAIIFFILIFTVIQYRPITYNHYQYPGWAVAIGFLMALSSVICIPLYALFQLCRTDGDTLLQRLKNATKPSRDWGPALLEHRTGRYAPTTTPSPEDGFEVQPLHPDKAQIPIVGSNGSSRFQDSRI
As to the kind of experiment: Glycine uptake inhibition assay (mGlyT-1b). It is filed as cell-based. The method, then: DMEM complete medium: Nutrient mixture F-12 (Gibco Life-technologies), fetal bovine serum (FBS) 5%, (Gibco life technologies), Penicillin/Streptomycinl % (Gibco life technologies), Hygromycin 0.6 mg/ml (Gibco life technologies), Glutamine 1 mM Gibco life technologies)
Uptake buffer (UB): 150 mM NaCl, 10 mM Hepes-Tris, pH 7.4, 1 mM CaCl2, 2.5 mM KCl, 2.5 mM MgSO4, 10 mM (+) D-glucose.
Flp-in™-CHO (Invitrogen Cat no. R758-07)cells stably transfected with mGlyT1b cDNA.
Glycine Uptake Inhibition Assay (mGlyT-1b)

The target of the next test is T2, GlyT-1 (Homo sapiens, UniProt P48067).
T2 sequence (P48067 1-706): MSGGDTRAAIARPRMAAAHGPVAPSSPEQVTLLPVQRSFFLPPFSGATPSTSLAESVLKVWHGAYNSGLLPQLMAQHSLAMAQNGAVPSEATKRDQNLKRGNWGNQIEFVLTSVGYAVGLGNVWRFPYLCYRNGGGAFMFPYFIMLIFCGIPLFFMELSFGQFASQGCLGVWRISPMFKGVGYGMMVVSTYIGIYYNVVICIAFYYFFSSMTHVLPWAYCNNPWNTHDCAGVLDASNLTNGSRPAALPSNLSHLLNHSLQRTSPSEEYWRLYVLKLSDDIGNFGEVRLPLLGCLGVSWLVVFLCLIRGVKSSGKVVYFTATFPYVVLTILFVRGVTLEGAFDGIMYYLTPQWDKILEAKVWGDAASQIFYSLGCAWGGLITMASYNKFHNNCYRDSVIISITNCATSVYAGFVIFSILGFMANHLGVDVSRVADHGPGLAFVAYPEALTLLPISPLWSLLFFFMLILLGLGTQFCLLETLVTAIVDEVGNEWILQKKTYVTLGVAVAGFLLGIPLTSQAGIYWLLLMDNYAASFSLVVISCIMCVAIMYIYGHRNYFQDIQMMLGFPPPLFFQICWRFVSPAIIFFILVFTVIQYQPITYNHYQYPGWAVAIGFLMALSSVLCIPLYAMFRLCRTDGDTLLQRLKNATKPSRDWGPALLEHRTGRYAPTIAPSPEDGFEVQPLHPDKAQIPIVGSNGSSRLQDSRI
Put plainly: GlyT-1 inhibition, human. The test is classed as cell-based.

pIC50: −log10 of the molar value. Several values for one entry are separate records, joined by “and”; a condition that tells them apart may be missing. Equal values may be shown once. Read-outs that look alike come from different tables or passages of the source.

`O=C1NCC(c2ccc(F)cc2)C12CCN(C1(c3ccsc3)CCCCC1)CC2` (racemic) [Example 38, rac-4-(4-Fluoro-phenyl)-8-(1-thiophen-3-yl-cyclohexyl)-2,8-diaza-spiro[4.5]decan-1-one]: the pIC50 against mGlyT-1b (GlyT-1 Enant. Mouse/human) is 7.00 and 6.67; against mGlyT-1b (GlyT-1 Racemat Mouse/human) it was 7.00.
For `O=C1NCC(c2ccc(F)cc2)C12CCN(C1(c3ccc(F)cc3)CCCCCC1)CC2` (racemic) [Example 50, rac4-(4-Fluoro-phenyl)-8-[1-(4-fluoro-phenyl)-cycloheptyl]-2,8-diaza-spiro[4.5]decan-1-one], the pIC50 against mGlyT-1b was 7.09; at mGlyT-1b (second-listed enantiomer, mouse value (before the slash), read-out: GlyT-1 Enant. Mouse/human) it was 6.82; on GlyT-1 (racemate, human value (after the slash), read-out: GlyT-1 Racemat Mouse/human), 6.88.
Consider `Cc1ccc(C2CNC(=O)C23CCN(C2(c4ccc(F)cc4)CCCCC2)CC3)cc1` (racemic) [Example 52, rac 8-[1-(4-Fluoro-phenyl)-cyclohexyl]4-p-tolyl-2,8-diaza-spiro [4.5]decan-1-one], for which, at GlyT-1 (GlyT-1 Racemat Mouse/human), the pIC50 was 7.14.
